We go through 22 molecules from patent US9365576B2, “Pyrrolopyrrolidinone compounds” (Novartis AG, priority 2012, dated 2016).

Chain of human MDM2 protein (amino acids 2-188) (Q00987 2-188): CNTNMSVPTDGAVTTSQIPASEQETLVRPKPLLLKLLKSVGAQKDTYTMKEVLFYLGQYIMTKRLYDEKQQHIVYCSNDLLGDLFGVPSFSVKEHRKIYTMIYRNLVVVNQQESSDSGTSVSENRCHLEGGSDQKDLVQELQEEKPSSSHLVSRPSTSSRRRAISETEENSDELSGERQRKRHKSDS

This experiment deals with human MDM2 protein (amino acids 2-188) (Homo sapiens (Human), UniProt Q00987). Nature of the experiment: TR-FRET assay, p53-MDM2 Assay 2 (modified). Particulars: TR-FRET; 0.1 nM MDM2, 0.1 nM Europium labeled streptavidin, Tecan genios Pro reader; read-out: IC50 p53-MDM2 Assay 2. It is filed as binding. The protocol:
The inhibition of p53-MDM2 and p53-MDM4 interactions is measured by time resolved fluorescence energy transfer (TR-FRET). Fluorescence energy transfer (or Foerster resonance energy transfer) describes an energy transfer between donor and acceptor fluorescent molecules. For this assay, human MDM2 protein (amino acids 2-188) and human MDM4 protein (amino acids 2-185), tagged with a C-terminal biotin moiety, are used in combination with a Europium labeled streptavidin (Perkin Elmer, Inc., Waltham, Mass., USA) serving as the donor fluorophore. The p53 derived, Cy5 labeled peptide Cy5-[…] (p53 aa18-26) is the energy acceptor. Upon excitation of the donor molecule at 340 nm, binding interaction between MDM2 or MDM4 and the p53 peptide induces energy transfer and enhanced response at the acceptor emission wavelength at 665 nm. […] The ratiometric FRET assay readout is calculated from the raw data of the two distinct fluorescence signals measured in time resolved mode (fluorescence 665 nm/fluorescence 620 nm×1000).
After addition of 1.25 nM MDM2-biotinylated or 2.5 nM MDM4-biotinylated (internal preparations), and 0.625 nM Europium labeled streptavidin (Perkin Elmer), the solution is pre-incubated for 15 minutes at room temperature, then 10 nM Cy5-p53 peptide (internal preparation) is added before an incubation at room temperature for 15 minutes prior to reading the plate. For measurement of samples, a Victor II microplate reader (Perkin Elmer) is used with the following settings: Excitation 340 nm, Emission Donor 620 nm and Emission Acceptor 665 nm. IC50 values are calculated by curve fitting using XLfit. If not specified, reagents are purchased from Sigma-Aldrich Chemie GmBH, Buchs, Switzerland.
A general note: Time-resolved FRET reads energy transfer from a long-lived donor to a nearby acceptor.
Turning to `COc1ncc(-c2cc3c(n2C(C)C)[C@@H](c2ccc(C#N)cc2)N(c2cc(Cl)cn(C)c2=O)C3=O)c(OC)n1` [Example 216, 4-[(R)-5-(5-Chloro-1-methyl-2-oxo-1,2-dihydro-pyridin-3-yl)-2-(2,4-dimethoxy-pyrimidin-5-yl)-1-isopropyl-4-oxo-1,4,5,6-tetrahydro-pyrrolo[3,4-b]pyrrol-6-yl]-benzonitrile], the concentration for half-maximal inhibition (IC50) turned out to be 883 nM.

With `COc1ncc(-c2cc3c(n2C(C)C)C(c2ccc(Cl)cc2C)N(c2cc(Cl)c(=O)n(C)c2)C3=O)c(OC)n1` (stereo not shown) [Example 146, 5-(5-Chloro-1-methyl-6-oxo-1,6-dihydro-pyridin-3-yl)-6-(4-chloro-2-methyl-phenyl)-2-(2,4-dimethoxy-pyrimidin-5-yl)-1-isopropyl-5,6-dihydro-1H-pyrrolo[3,4-b]pyrrol-4-one], the IC50 turned out to be 0.216 nM.

Take `COc1nc(N)ncc1-c1cc2c(n1C(C)C)C(c1ccc(C#N)cc1)N(c1cc(Cl)c[nH]c1=O)C2=O` (stereo not shown) [Example 125, 4-[2-(2-Amino-4-methoxy-pyrimidin-5-yl)-5-(5-chloro-2-oxo-1,2-dihydro-pyridin-3-yl)-1-isopropyl-4-oxo-1,4,5,6-tetrahydro-pyrrolo[3,4-b]pyrrol-6-yl]-benzonitrile]: the half-maximal inhibitory concentration (IC50) was 3.22 nM.

Turning to `COc1ncc(-c2cc3c(n2C(C)C)[C@H](c2ccc(C#N)cc2)N(c2cc(Cl)c(=O)n(C)c2)C3=O)c(OC)n1` [Example 186, 4-[(S)-5-(5-Chloro-1-methyl-6-oxo-1,6-dihydro-pyridin-3-yl)-2-(2,4-dimethoxy-pyrimidin-5-yl)-1-isopropyl-4-oxo-1,4,5,6-tetrahydro-pyrrolo[3,4-b]pyrrol-6-yl]-benzonitrile], the IC50 is 0.108 nM.

On to `COc1ncc(-c2cc3c(n2C(C)C)C(c2ccc(Cl)cc2)N(C2CN(C)C(=O)N(C)C2)C3=O)c(OC)n1` (stereo not shown) [Example 110, 6-(4-Chloro-phenyl)-2-(2,4-dimethoxy-pyrimidin-5-yl)-5-(1,3-dimethyl-2-oxo-hexahydro-pyrimidin-5-yl)-1-isopropyl-5,6-dihydro-1H-pyrrolo[3,4-b]pyrrol-4-one], for which the concentration for half-maximal inhibition (IC50) came out at 0.741 nM.

As to `COc1ncc(-c2cc3c(n2C(C)C)[C@H](c2ccc(Cl)cc2C)N(c2cc(Cl)c(=O)n(C)c2)C3=O)c(OC)n1` [Example 160, (S)-5-(5-Chloro-1-methyl-6-oxo-1,6-dihydro-pyridin-3-yl)-6-(4-chloro-2-methyl-phenyl)-2-(2,4-dimethoxy-pyrimidin-5-yl)-1-isopropyl-5,6-dihydro-1H-pyrrolo[3,4-b]pyrrol-4-one], the half-inhibitory concentration (IC50) stood at 0.144 nM.

On to `COc1cn(C)c(=O)cc1-c1cc2c(n1C(C)C)C(c1ccc(Cl)cc1)N(c1cn(C)nc1C)C2=O` (stereo not shown) [Example 184, 6-(4-Chloro-phenyl)-5-(1,3-dimethyl-1H-pyrazol-4-yl)-1-isopropyl-2-(5-methoxy-1-methyl-2-oxo-1,2-dihydro-pyridin-4-yl)-5,6-dihydro-1H-pyrrolo[3,4-b]pyrrol-4-one], for which the IC50 worked out at 5.6 nM.

For `COc1nc(N(C)C)ncc1-c1c(C(=O)O)c2c(n1C(C)C)C(c1ccc(Cl)cc1)N(c1cc(Cl)c(=O)n(C)c1)C2=O` (stereo not shown) [Example 226, 5-(5-Chloro-1-methyl-6-oxo-1,6-dihydro-pyridin-3-yl)-6-(4-chloro-phenyl)-2-(2-dimethylamino-4-methoxy-pyrimidin-5-yl)-1-isopropyl-4-oxo-1,4,5,6-tetrahydro-pyrrolo[3,4-b]pyrrole-3-carboxylic acid], the concentration for half-maximal inhibition (IC50) came out at 0.132 nM.

On to `COc1ccc(CC(=O)O)cc1-c1cc2c(n1C(C)C)C(c1ccc(Cl)cc1)N(c1cc(Cl)c(=O)n(C)c1)C2=O` (stereo not shown) [Example 118, {3-[5-(5-Chloro-1-methyl-6-oxo-1,6-dihydro-pyridin-3-yl)-6-(4-chloro-phenyl)-1-isopropyl-4-oxo-1,4,5,6-tetrahydro-pyrrolo[3,4-b]pyrrol-2-yl]-4-methoxy-phenyl}-acetic acid], for which the IC50 worked out at 0.311 nM.

For `COC[C@@H](C)n1c(-c2cnc(OC)nc2OC)cc2c1C(c1ccc(Cl)cc1)N(c1cc(Cl)c(=O)n(C)c1)C2=O` (stereo partly shown) [Example 225], the IC50 came out at 0.277 nM.

With `COc1ncc(-c2cc3c(n2C(C)C)C(c2ccc(C#N)cc2)N(c2c[nH]c(=O)c(Cl)c2)C3=O)c(OC)n1` (stereo not shown) [Example 135, 4-[5-(5-Chloro-6-oxo-1,6-dihydro-pyridin-3-yl)-2-(2,4-dimethoxy-pyrimidin-5-yl)-1-isopropyl-4-oxo-1,4,5,6-tetrahydro-pyrrolo[3,4-b]pyrrol-6-yl]-benzonitrile], the IC50 amounted to 0.427 nM.

With `COc1ncc(-c2cc3c(n2C(C)C)[C@@H](c2ccc(Cl)cc2)N(c2cc(Cl)ccc2C)C3=O)c(OC)n1` [Example 24, (R)-5-(5-Chloro-2-methyl-phenyl)-6-(4-chloro-phenyl)-2-(2,4-dimethoxy-pyrimidin-5-yl)-1-isopropyl-5,6-dihydro-1H-pyrrolo[3,4-b]pyrrol-4-one], the half-inhibitory concentration (IC50) worked out at 29.6 nM.

In the case of `COc1nc(N(C)C)ncc1-c1cc2c(n1C(C)C)[C@H](c1ccc(Cl)cc1)N(c1c[nH]c(=O)c(Cl)c1)C2=O` [Example 188, (S)-5-(5-Chloro-6-oxo-1,6-dihydro-pyridin-3-yl)-6-(4-chloro-phenyl)-2-(2-dimethylamino-4-methoxy-pyrimidin-5-yl)-1-isopropyl-5,6-dihydro-1H-pyrrolo[3,4-b]pyrrol-4-one], the half-maximal inhibitory concentration (IC50) was determined as 0.079 nM.

Consider `COc1nc(N(C)C)ncc1-c1cc2c(n1C(C)C)C(c1ccc(Cl)cc1)N(c1cc(Cl)c[nH]c1=O)C2=O` (stereo not shown) [Example 123, 5-(5-Chloro-2-oxo-1,2-dihydro-pyridin-3-yl)-6-(4-chloro-phenyl)-2-(2-dimethylamino-4-methoxy-pyrimidin-5-yl)-1-isopropyl-5,6-dihydro-1H-pyrrolo[3,4-b]pyrrol-4-one], for which the IC50 was found to be 0.106 nM.

For `COc1nc(N)ncc1-c1cc2c(n1C(C)C)C(c1ccc(Cl)cc1)N(c1c(F)c(C)nn1C)C2=O` (stereo not shown) [Example 210, 2-(2-Amino-4-methoxy-pyrimidin-5-yl)-6-(4-chloro-phenyl)-5-(4-fluoro-2,5-dimethyl-2H-pyrazol-3-yl)-1-isopropyl-5,6-dihydro-1H-pyrrolo[3,4-b]pyrrol-4-one], the IC50 was 3.9 nM.

As to `COc1nc(N(C)C)ncc1-c1cc2c(n1C(C)C)C(c1ccc(C#N)cc1)N(c1cc(C)nn1C)C2=O` (stereo not shown) [Example 180, 4-[2-(2-Dimethylamino-4-methoxy-pyrimidin-5-yl)-5-(2,5-dimethyl-2H-pyrazol-3-yl)-1-isopropyl-4-oxo-1,4,5,6-tetrahydro-pyrrolo[3,4-b]pyrrol-6-yl]-benzonitrile], the half-inhibitory concentration (IC50) is 0.647 nM.

Consider `COC[C@@H](C)n1c(-c2cnc(OC)nc2OC)cc2c1C(c1ccc(C#N)cc1)N(c1ccc(F)c(Cl)c1)C2=O` (stereo partly drawn) [Example 222, 4-[(R,S)-5-(3-Chloro-4-fluoro-phenyl)-2-(2,4-dimethoxy-pyrimidin-5-yl)-1-((R)-2-methoxy-1-methyl-ethyl)-4-oxo-1,4,5,6-tetrahydro-pyrrolo[3,4-b]pyrrol-6-yl]-benzonitrile], for which the 50% inhibitory concentration (IC50) is 0.303 nM.

Turning to `COc1cn(C)c(=O)cc1-c1cc2c(n1C(C)C)C(c1ccc(Cl)cc1)N(c1cc(Cl)ccc1C)C2=O` (stereo not shown) [Example 149, 5-(5-Chloro-2-methyl-phenyl)-6-(4-chloro-phenyl)-1-isopropyl-2-(5-methoxy-1-methyl-2-oxo-1,2-dihydro-pyridin-4-yl)-5,6-dihydro-1H-pyrrolo[3,4-b]pyrrol-4-one], the half-inhibitory concentration (IC50) worked out at 0.11 nM.

Turning to `CNc1ncc(-c2cc3c(n2C(C)C)[C@@H](c2ccc(C#N)cc2)N(c2cc(Cl)cn(C)c2=O)C3=O)c(OC)n1` [Example 166, 4-[(R)-5-(5-Chloro-1-methyl-2-oxo-1,2-dihydro-pyridin-3-yl)-1-isopropyl-2-(4-methoxy-2-methylamino-pyrimidin-5-yl)-4-oxo-1,4,5,6-tetrahydro-pyrrolo[3,4-b]pyrrol-6-yl]-benzonitrile], the IC50 is 293 nM.

Take `COc1ccc(C(=O)O)cc1-c1cc2c(n1C(C)C)C(c1ccc(Cl)cc1)N(c1cc(Cl)ccc1C)C2=O` (stereo not shown) [Example 35, 3-[5-(5-Chloro-2-methyl-phenyl)-6-(4-chloro-phenyl)-1-isopropyl-4-oxo-1,4,5,6-tetrahydro-pyrrolo[3,4-b]pyrrol-2-yl]-4-methoxy-benzoic acid]: the half-maximal inhibitory concentration (IC50) worked out at 0.169 nM.

Consider `COc1ncc(-c2cc3c(n2C(C)C)C(c2ccc(Cl)cc2)N(c2ccc(F)c(Cl)c2)C3=O)c(OC)n1` (stereo not shown) [Example 54, 5-(3-Chloro-4-fluoro-phenyl)-6-(4-chloro-phenyl)-2-(2,4-dimethoxy-pyrimidin-5-yl)-1-isopropyl-5,6-dihydro-1H-pyrrolo[3,4-b]pyrrol-4-one], for which the IC50 worked out at 0.267 nM.

For `COc1ncc(-c2c(C#N)c3c(n2C(C)C)C(c2ccc(Cl)cc2)N(c2cc(Cl)c(=O)n(C)c2)C3=O)c(OC)n1` (stereo not shown) [Example 120, 5-(5-Chloro-1-methyl-6-oxo-1,6-dihydro-pyridin-3-yl)-6-(4-chloro-phenyl)-2-(2,4-dimethoxy-pyrimidin-5-yl)-1-isopropyl-4-oxo-1,4,5,6-tetrahydro-pyrrolo[3,4-b]pyrrole-3-carbonitrile], the IC50 was determined as 0.167 nM.

For orientation: IC50 means the point on the concentration scale where inhibition reaches its midpoint.
